Counter-ions that a name gives are not always drawn.
Tests used:
[1] = target: BRD4-BD2 (Homo sapiens (Human), UniProt O60885); assay: BRD4 AlphaScreen assay (BRD4-BD2); type: binding; conditions: H4Ac4 peptide, 20 nM BRD4-BD2, read-out: BRD4 BD-2 enzyme IC50
Procedure: (§1) BRD4-BD1 and BRD4-BD2 assays were conducted in white 384-well polystyrene plate in a final volume of 20 μL for BD1 and 40 μL for BD2. Inhibitors were first serially diluted in DMSO and added to the plate wells before the addition of other reaction components. The final concentration of DMSO in the assay was 1.25% (BD1) and 0.83% (BD2). The assays were carried out at room temperature for 75 min. in the assay buffer (50 mM HEPES, pH 7.4, 100 mM NaCl, 0.05% CHAPS, 0.01% BSA), containing 50 nM Biotin-labeled tetra-acetylated histone H4 peptide (H4Ac4), 3.8 nM (BRD4-BD1, BPS Bioscience #31040) or 20 nM (BRD4-BD2, BPS Bioscience #31041). The reaction followed by the addition of 20 μL of assay buffer supplemented with Streptavidin donor beads (PerkinElmer 6760002) and GSH Acceptor beads (PerkinElmer-AL109C) at 4 µg/mL under reduced light. After plate sealing, the plate was incubated in the dark at room temperature for 75 min. before reading on a PHERAstar FS plate reader (BMG Labtech). IC50 determination was performed by fitting the curve of percent control activity versus the log of the inhibitor concentration using the GraphPad Prism 5.0 software. IC50 data for the Examples is presented in Table 1 as determined by Assay A1.

[2] = tested on: C-myc in KMS.12.BM cells; assay: KMS.12.BM C-myc ELISA assay; type: cell-based; conditions: Homo sapiens, 2 hours
Procedure: KMS.12.BM cell line (human myeloma) was purchased from JCRB (Osaka, Japan) and maintained in RPMI with 10% FBS culture medium. To measure the C-myc inhibitory activity of the compounds, the KMS.12.BM cells are plated in the RPMI culture medium at 75000 cells/well/per 200 μL into a 96-well flat bottom polystyrene tissue culture plate (Corning through VWR, N.J.), in the presence or absence of a concentration range of test compounds. After 2 hours, cell are pelleted and lysed with Cell Extraction Buffer (BioSource, Carlsbad, Calif.) in the presence of protease inhibitors (Life Technologies, Grand Island, N.Y. and Sigma, St Louis, Mo.). Clarified lyses are tested in a C-myc commercial ELISA (Life Technologies, Grand Island, N.Y.). Compound inhibition is determined relative to cells cultured with no drug and the IC50 is reported as the compound concentration required for 50% C-myc inhibition. IC50 data for the Examples is presented in Table 3 as determined by Assay C1.

[3] = target: BRD4-BD1 (Homo sapiens (Human), UniProt O60885); assay: BRD4 AlphaScreen assay (BRD4-BD1); type: binding; conditions: H4Ac4 peptide, 3.8 nM BRD4-BD1, read-out: BRD4 BD-1 enzyme IC50
Procedure: as §1

[4] = tested on: KMS.12.BM cells; assay: KMS.12.BM cell viability assay (ATP quantitation, Cell Titer-GLO); type: cell-based; conditions: Homo sapiens, 72 h, 3 days, concentration required for 50% cell death, read-out: KMS cellular IC50
Procedure: KMS.12.BM cell line (human myeloma) was purchased from JCRB (Osaka, Japan) and maintained in RPMI with 10% FBS culture medium. To measure the cytotoxic activity of the compounds through ATP quantitation, the KMS.12.BM cells are plated in the RPMI culture medium at 5000 cells/well/per 100 μL into a 96-well polystyrene clear black tissue culture plate (Greiner-bio-one through VWR, NJ), in the presence or absence of a concentration range of test compounds. After 3 days, […] Cell Titer-GLO Luminescent (Promega, Madison, Wis.) cell culture agent is added to each well for 10 minutes at room temperature to stabilize the luminescent signal. This determines the number of viable cells in culture based on quantitation of the ATP present, which signals the presence of metabolically active cells. Luminescence is measured with the Top Count 384 (Packard Bioscience through Perkin Elmer, Boston, Mass.). Compound inhibition is determined relative to cells cultured with no drug and the IC50 is reported as the compound concentration required for 50% cell death. IC50 data for the Examples is presented in Table 2 as determined by Assay B1.

Row | SMILES | IC50 [1] [nM] | IC50 [2] [nM] | IC50 [3] [nM] | IC50 [4] [nM]
1 | Cn1cc(-c2cc3[nH]cnc3cc2Oc2ccc(F)cc2F)c2cc[nH]c2c1=O [Example 5, 4-[5-(2,4-Difluorophenoxy)-1H-benzimidazol-6-yl]-6-methyl-1,6-dihydro-7H-pyrrolo[2,3-c]pyridin-7-one trifluoroacetate] | ≤ 100 | ≤ 1000 | ≤ 100 | ≤ 1000
2 | CCn1cnc2cc(OCC3CCC3)c(-c3cn(C)c(=O)c4[nH]ccc34)cc21 [Example 12, 4-[5-(Cyclobutylmethoxy)-1-ethyl-1H-benzimidazol-6-yl]-6-methyl-1,6-dihydro-7H-pyrrolo[2,3-c]pyridin-7-one] | ≤ 100 |  | ≤ 100 | ≤ 1000
3 | Cn1cc(-c2cc3c(cc2OCC2CCC2)ncn3Cc2ccccc2)c2cc[nH]c2c1=O [Example 16, 4-[5-(Cyclobutylmethoxy)-1-benzyl-1H-benzimidazol-6-yl]-6-methyl-1,6-dihydro-7H-pyrrolo[2,3-c]pyridin-7-one] | ≤ 100 |  | 100 to 1000 | 
4 | Cn1cc(-c2cc3[nH]c(C4CCCC4)nc3cc2OCC2CCC2)c2cc[nH]c2c1=O [Example 21, 4-[5-(Cyclobutylmethoxy)-2-cyclopentyl-1H-benzimidazol-6-yl]-6-methyl-1,6-dihydro-7H-pyrrolo[2,3-c]pyridin-7-one bis(trifluoroacetate)] | ≤ 100 |  | ≤ 100 | ≤ 1000
5 | Cn1cc(-c2cc3[nH]c(CCC(=O)O)nc3cc2OCC2CCC2)c2cc[nH]c2c1=O [Example 22, Ammonium 3-[5-(cyclobutylmethoxy)-6-(6-methyl-7-oxo-6,7-dihydro-1H-pyrrolo[2,3-c]pyridin-4-yl)-1H-benzimidazol-2-yl]propanoate] | ≤ 100 |  | ≤ 100 | 1000 to 10000

More lines, main results first:

Row | IC50 [1] [nM] | IC50 [2] [nM] | IC50 [3] [nM] | SMILES | IC50 [4] [nM]
6 | ≤ 100 | ≤ 1000 | ≤ 100 | Cn1cc(-c2cc3[nH]c(=O)[nH]c3cc2Oc2ccc(F)cc2F)c2cc[nH]c2c1=O [Example 1, 5-(2,4-Difluorophenoxy)-6-(6-methyl-7-oxo-6,7-dihydro-1H-pyrrolo[2,3-c]pyridin-4-yl)-1,3-dihydro-2H-benzimidazol-2-one] | ≤ 1000
7 | ≤ 100 | ≤ 1000 | ≤ 100 | Cn1cc(-c2cc3[nH]c(=O)n(C)c3cc2Oc2ccc(F)cc2F)c2cc[nH]c2c1=O [Example 2, 6-(2,4-Difluorophenoxy)-1-methyl-5-(6-methyl-7-oxo-6,7-dihydro-1H-pyrrolo[2,3-c]pyridin-4-yl)-1,3-dihydro-2H-benzimidazol-2-one] | ≤ 1000
8 | ≤ 100 | ≤ 1000 | ≤ 100 | Cn1cc(-c2cc3ncn(C)c3cc2Oc2ccc(F)cc2F)c2cc[nH]c2c1=O [Example 3, 4-[6-(2,4-Difluorophenoxy)-1-methyl-1H-benzimidazol-5-yl]-6-methyl-1,6-dihydro-7H-pyrrolo[2,3-c]pyridin-7-one] | ≤ 1000
9 | ≤ 100 | ≤ 1000 | ≤ 100 | Cc1nc2cc(-c3cn(C)c(=O)c4[nH]ccc34)c(Oc3ccc(F)cc3F)cc2n1C [Example 4, 4-[6-(2,4-Difluorophenoxy)-1,2-dimethyl-1H-benzimidazol-5-yl]-6-methyl-1,6-dihydro-7H-pyrrolo[2,3-c]pyridin-7-one] | ≤ 1000
10 | ≤ 100 | ≤ 1000 | ≤ 100 | Cc1nc2cc(Oc3ccc(F)cc3F)c(-c3cn(C)c(=O)c4[nH]ccc34)cc2[nH]1 [Example 6, 4-[5-(2,4-Difluorophenoxy)-2-methyl-1H-benzimidazol-6-yl]-6-methyl-1,6-dihydro-7H-pyrrolo[2,3-c]pyridin-7-one trifluoroacetate] | ≤ 1000
11 | ≤ 100 |  | 100 to 1000 | Cn1cc(-c2cc3c(cc2Oc2ccc(F)cc2F)n(C)c(=O)n3C)c2cc[nH]c2c1=O [Example 7, 5-(2,4-Difluorophenoxy)-1,3-dimethyl-6-(6-methyl-7-oxo-6,7-dihydro-1H-pyrrolo[2,3-c]pyridin-4-yl)-1,3-dihydro-2H-benzimidazol-2-one] | ≤ 1000
